Laboratory results taken from PubChem BioAssay (NCI).
“And” between values parts separate entries of the source, which are not always exact repeats. Equal values may be shown once.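 Grown in 96-well plates, cells were treated for 48 hours with each compound at five concentrations. Insufficient inhibition: endpoint recorded as highest concentration tested. Here, GI50 denotes the concentration required for 50% inhibition of growth. TGI is the concentration that stops growth completely.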 *1 amine or outer side, *2 acyl side, *3 side chain or, on linkers, in order; H or OH if unused. Where a SMILES comes first, the peptide text is derived from it. Bridges are numbered along the chain shown (N, C = ends). Roman numbers before positions name the chains, in order. [ ]: non-standard residue; d: D form. Actinocin(9to1) = Cc1c2oc3c(C)ccc(C(=O)[*:1])c3nc-2c(C(=O)[*:2])c(N)c1=O; NMeT = CN[CH](C(=O)O)[CH](C)O; Sar = CNCC(=O)O

How the values were obtained:
Test in all cases: NCI tumour cell line growth inhibition, 48 h
[1] = tested on: BT-549 breast
[2] = tested on: MDA-N
[3] = tested on: DMS 273 small cell lung
[4] = tested on: HOP-18 NSCLC
[5] = tested on: LXFL 529 NSCLC
[6] = tested on: XF 498 CNS
[7] = tested on: DMS 114 small cell lung
[8] = tested on: SNB-78 CNS
[9] = tested on: RXF-631 renal

SMILES | GI50 [1] [µM] | TGI [1] [µM] | TGI [3] [µM] | TGI [5] [µM] | TGI [7] [µM] | other results
c1cc(N2CCCN(c3ccc(C4=NCCCN4)cc3)CC2)ccc1C1=NCCCN1 | > 100 | > 100 |  |  |  | 
Cc1cc(-c2nc3sccn3c2/C=N/N=C(N)N)c(C)s1 | 18.5 | 33.3 |  |  |  | 
NC[C@H]1Nc2ccccc2[C@@H](O)C1O (some centres undefined) |  |  |  |  |  | TGI [2]: > 100 µM
COC(=O)CC[C@]1(C)O[C@H]2[C@H]([C@@H](C)CCCC(C)=O)OC(=O)[C@@H]2C[C@H]1O | > 100 | > 100 |  |  |  | 
CC(C)[O-].CC(C)[O-].O=C1C=C([O-])C(=O)c2ccccc21.O=C1C=C([O-])C(=O)c2ccccc21.[Ti+4] |  |  | > 100 | > 100 |  | GI50 [3]: 34.9 µM; GI50 [4]: > 86.7 µM; TGI [4]: > 100 µM; GI50 [5]: 80.8 µM; GI50 [6]: > 100 µM; TGI [6]: > 100 µM
CC1=C(C(=O)Nc2ccc(Cl)c(Cl)c2)C(c2cccc(Cl)c2)NC(=O)N1 (centres undefined) | 6.42 | 13.4 |  |  |  | 
COc1ccc(-c2cc(-c3ccc(Cl)cc3)nc(SCCCC(=O)NO)n2)cc1 | 2.46 | 28.6 |  |  |  | 
O=C(O)NC(c1ccccc1)C(NC(=O)c1ccccc1)c1ccccc1 (centres undefined) |  |  |  |  | > 100 | TGI [4]: > 100 µM; TGI [8]: > 100 µM; TGI [6]: > 100 µM
O=C(O)Cc1cc(=O)[nH]c2c1/C(=N/O)CCC2 |  |  |  | > 100 |  | TGI [4]: > 100 µM; TGI [6]: > 100 µM
O=C1NC(=O)C(c2ccccc2Cl)=C1Nc1cc(Cl)c(O)c(Cl)c1 | 16.7 | > 25 |  |  |  | 
CC(=O)[CH-]C(=O)c1ccccc1.CC(=O)[CH-]C(=O)c1ccccc1.CC(C)CCCC(C)[C@H]1CCC2[C@@H]3CC=C4C[C@@H]([O-])CC[C@]4(C)C3CC[C@@]21C.CC(C)CCCC(C)[C@H]1CCC2[C@@H]3CC=C4C[C@@H]([O-])CC[C@]4(C)C3CC[C@@]21C.[Ti+4] (some centres undefined) |  |  | > 100 | > 100 |  | GI50 [3]: > 100 µM; GI50 [4]: > 100 µM; TGI [4]: > 100 µM; GI50 [5]: > 100 µM
COc1ccc(C(=O)C(C(=O)CC(=O)Nc2cccc(C(F)(F)F)c2)c2ccc(OC)cc2)cc1 (centres undefined) |  |  | > 100 | > 100 | > 100 | TGI [9]: > 100 µM; TGI [8]: > 100 µM; TGI [6]: > 100 µM
O=C(Nc1ccc(Cl)cc1Cl)C1C(=O)C(=O)N(c2ccc(Cl)cc2Cl)C1=O (centres undefined) |  |  |  | > 100 | > 100 | TGI [4]: > 100 µM; TGI [8]: > 100 µM
COc1ccc(NC([Se])=NC23CC4CC(CC(C4)C2)C3)cc1 | 0.874 | 2.32 |  |  |  | 
O=C(CCc1nnc2s/c(=C\c3ccc(Cl)c(Cl)c3)c(=O)n12)Nc1ccc(Cl)c(Cl)c1 |  |  |  | > 100 | > 100 | TGI [4]: > 100 µM; TGI [6]: > 100 µM
Cn1nc(-c2ccccc2)c(C(=O)/C=C/c2ccc(Cl)cc2)c(N2CCCCC2)c1=O |  |  | 6.75 | 3.33 | 4.37 | TGI [4]: 4.94 µM; TGI [9]: 9.79 µM; TGI [6]: 3.91 µM
O=C1O/C(=C\c2ccccc2)N(c2ccccc2)C1=O |  | > 100 |  |  |  | TGI [2]: > 100 µM
CC(=O)c1cccc(C)c1C(=O)O |  |  | > 100 | > 100 | > 100 | TGI [4]: > 100 µM; TGI [8]: > 100 µM

SMILES | GI50 [1] [µM] | TGI [1] [µM] | TGI [3] [µM] | TGI [5] [µM] | TGI [7] [µM] | other results
O=C1CC(=O)N(C(=O)c2nn(-c3ccc(Cl)cc3)cc2O)N1 | 0.296 | > 64.5 |  |  |  | 
O=C1O[C@H](c2ccccc2)[C@@H]2CC3(CCN12)OCCO3 |  |  | > 100 | > 100 |  | TGI [9]: > 100 µM; TGI [6]: > 100 µM
CCN(CC)CCCNC(=O)C1COc2cc(-c3cc(=O)c4ccccc4o3)ccc2O1 (centres undefined) |  |  | > 100 | > 100 | 50.9 | TGI [4]: > 100 µM; TGI [9]: > 100 µM; TGI [8]: > 100 µM
NC1CCC(Nc2nc(NCc3ccc(-c4ccccc4O)nc3)c3ncn(C4CCCC4)c3n2)CC1 (centres undefined) | 0.0998 | 0.623 |  |  |  | 
N#CC1=C(N)Oc2c(ccc3ccccc23)C1c1ccccc1 (centres undefined) | 0.0821 | 3.4 |  |  |  | 
COc1cc(-c2ccc(-c3ccc(C(=N)N)nc3)s2)cc(OC)c1OC | 1.67 | 3.49 |  |  |  | 
NC(=O)CCC(Nc1c2ccccc2nc2ccccc12)C(=O)O (centres undefined) |  |  | > 100 | > 100 |  | TGI [9]: > 100 µM
CS(=O)(=O)CCNCc1ccc(-c2ccc3ncnc(Nc4ccc(OCc5ccccc5)c(Br)c4)c3c2)o1 | 8.89 | > 25 |  |  |  | 
COc1cc(OC)c(SSCCCCS(=O)O)c(OC)c1 |  |  | 34.8 | 25.2 | 39 | TGI [4]: 45.8 µM; TGI [8]: 29.4 µM; TGI [6]: 27.6 µM
CC1=C(C(=O)Nc2cc(=O)n(C)c(=O)n2C)C(c2cccc([N+](=O)[O-])c2)C(C(=O)Nc2cc(=O)n(C)c(=O)n2C)=C(C)N1 |  |  |  | > 100 | > 100 | TGI [8]: > 100 µM
COc1ccc2c3c([nH]c2c1[N+](=O)[O-])C(C)N(Cc1ccc([N+](=O)[O-])cc1)CC3 (centres undefined) |  |  | 27.8 | 59.8 |  | TGI [8]: > 100 µM
Cc1c2oc3c(C)ccc(C(=O)NC4C(=O)NC(C(C)C)C(=O)N5CCCC5C(=O)N(C)CC(=O)N(C)C(C(C)O)C(=O)OC4C)c3nc-2c(C(=O)NC2C(=O)NC(C(C)C)C(=O)N3CCCC3C(=O)N(C)CC(=O)N(C)C(C(C)O)C(=O)OC2C)c(N)c1=O (centres undefined) (I: TVP[Sar][NMeT] / II: TVP[Sar][NMeT]; ester I:1-I:C, II:1-II:C; linker I:N-II:N via Actinocin(9to1); configuration not given here) |  |  |  |  |  | TGI [2]: 16.9 µM and > 1 µM
O=C(O)CCCSc1ccccc1 |  | > 100 |  |  |  | TGI [2]: > 100 µM
Cc1cccc(C)c1CO |  |  | > 100 | > 100 | > 100 | TGI [9]: > 100 µM; TGI [8]: > 100 µM; TGI [6]: > 100 µM
COC(=O)C1=C(O)c2cc(-c3ccccc3)c(-c3ccccc3)c(C#N)c2NC(=O)C1 |  |  | > 100 | > 100 | > 100 | TGI [9]: 41 µM; TGI [8]: > 100 µM; TGI [6]: > 100 µM
CNC/C(Cl)=N/S(=O)(=O)c1ccc(C)cc1 |  | 51.7 |  |  |  | TGI [2]: 29.5 µM
N#Cc1ccc2c(c1)C(=O)c1c-2n(CCCCl)c(=O)c2cc([N+](=O)[O-])ccc12 | 2.28 | 23.5 |  |  |  | 
O=C(O)c1ccc(Oc2nccc(-c3c(-c4ccc(F)cc4)ncn3C3CCNCC3)n2)cc1 | > 25 | > 25 |  |  |  | 
